Results as given in patent US20190343425A1, “TREATMENT OF A DISEASE OF THE GASTROINTESTINAL TRACT WITH A TNF INHIBITOR” (Progenity, Inc., priority 2016, published 2019).

Assay: Tacrolimus tissue pharmacokinetics, oral versus intra-cecal ingestible device delivery
Format: in vivo, Yorkshire-Cross farm swine
Conditions: swine; intra-cecally (ingestible device) vs orally administered; FIG. 76
Method: No further randomization procedure was employed.
Animals in Group 1 received an ingestible device containing 0.8 mL of vehicle solution (80% alcohol, 20% HCO-60). Animals in Group 2 received orally […] liquid formulation of tacrolimus at 4 mg/0.8 mL per animal (Prograf: 5 mg/mL). Animals in Group 3 received intra-cecally an ingestible device containing tacrolimus at 1 mg in 0.8 mL per ingestible device. Animals in Group 4 received intra-cecally an ingestible device containing tacrolimus at 2 mg in 0.8 mL per ingestible device. Animals in Group 5 received intra-cecally an ingestible device containing tacrolimus at 4 mg in 0.8 mL per ingestible device. To control for potential confounding effects of the surgery, all groups fast on Day −11 at least 24 hr before being subjected to anesthesia followed by surgical placements of a cecal port by a veterinary surgeon at Day −10. […]
For tissue necropsy, small intestine fluid and cecal fluid were collected separately from all the animals into two separate square plastic bottles, and stored at −20° C. The length and diameter of the cecum and the colon was measured from one animal in each group and recorded for reference. […] All samples were weighed, and the tissue sample weights were recorded. […] Around 3 grams of the total punched sample were collected into a pre-weighed 15-mL conical tube, and the tissue weight was recorded. […]

mean concentration of tacrolimus in the cecum tissue and the proximate colon tissue: higher
SMILES: C=CC[C@@H]1/C=C(\C)C[C@H](C)C[C@H](OC)[C@H]2O[C@@](O)(C(=O)C(=O)N3CCCC[C@H]3C(=O)O[C@H](/C(C)=C/[C@@H]3CC[C@@H](O)[C@H](OC)C3)[C@H](C)[C@@H](O)CC1=O)[C@H](C)C[C@@H]2OC [tacrolimus]
